Data taken from patent publication US11358969B2, “Indole AHR inhibitors and uses thereof” (Ikena Oncology, Inc., priority 2017, dated 2022).

Target: T1, AHR (UniProt P35869)
T1 construct: IC50
T1 sequence (P35869 1-848): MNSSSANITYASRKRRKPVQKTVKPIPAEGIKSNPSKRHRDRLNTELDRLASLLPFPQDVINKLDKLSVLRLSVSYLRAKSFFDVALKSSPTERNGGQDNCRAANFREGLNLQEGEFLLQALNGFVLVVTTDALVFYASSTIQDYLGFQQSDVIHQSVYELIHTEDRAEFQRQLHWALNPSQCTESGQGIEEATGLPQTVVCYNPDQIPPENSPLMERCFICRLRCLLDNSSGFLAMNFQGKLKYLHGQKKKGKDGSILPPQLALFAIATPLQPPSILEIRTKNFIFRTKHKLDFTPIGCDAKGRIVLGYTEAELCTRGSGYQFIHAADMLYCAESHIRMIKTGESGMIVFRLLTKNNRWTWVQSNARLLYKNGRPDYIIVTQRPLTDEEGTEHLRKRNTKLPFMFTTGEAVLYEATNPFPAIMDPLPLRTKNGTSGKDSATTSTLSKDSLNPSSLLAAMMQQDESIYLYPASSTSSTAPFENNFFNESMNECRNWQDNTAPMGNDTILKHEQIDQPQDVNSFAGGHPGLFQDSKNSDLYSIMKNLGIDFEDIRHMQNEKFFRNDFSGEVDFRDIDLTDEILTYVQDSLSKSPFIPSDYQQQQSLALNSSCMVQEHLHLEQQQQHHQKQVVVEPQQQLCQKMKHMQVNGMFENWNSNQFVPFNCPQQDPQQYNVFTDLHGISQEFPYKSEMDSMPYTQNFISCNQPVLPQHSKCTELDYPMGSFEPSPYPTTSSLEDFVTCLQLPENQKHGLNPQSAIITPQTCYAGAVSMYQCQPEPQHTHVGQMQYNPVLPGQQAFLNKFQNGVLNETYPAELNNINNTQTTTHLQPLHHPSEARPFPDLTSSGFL
Assay: DRE-Luciferase Reporter Assay (Alternate Method) (Example 1B)
Assay type: cell-based, murine or human
Settings: cell line and AHR activating ligand not specified
Method: AHR binds to Dioxin Responsive Elements (DRE) upstream of genes that it activates. One measure of AHR activity is activation of a reporter gene, such as luciferase, downstream of one or multiple DRE elements. Luciferase activity will reflect activation and inhibition of AHR in the cells expressing his reporter.
Murine Hepa1-6 or Hepa-1c1c7 or other murine cell line with a DRE-luciferase reporter either stably or transiently transfected were plated in media in plates (96-well, 384-well or other plates) and incubated overnight at 37° C. in a CO2 incubator or compound and agonist were added at the time of plating. Likewise, human HepG2 or other human cell line with a DRE-luciferase reporter either stably or transiently transfected were plated in media in plates (96-well, 384-well or other plates) and incubated overnight at 37° C. in a CO2 incubator or compound and agonist were added at the time of plating.
At the time that cells are plated or following incubation overnight, an AHR activating ligand, such as TCDD, kynurenine, ITE (2-(1H-indole-3-ylcarbonyl)-4-thiazolecarboxylic methyl ester), VAF347, BNF (beta-naphthoflavone), FICZ (6-formylindolo(3,2-b) carbazole or other AHR ligands, was added with or without AHR antagonist.
Cells were incubated for 4, 15 or 24 hours or another time point and then lysed for determination of luciferase activity as a read-out of the AHR activation or inhibition. Luciferase was measured with a commercial kit such as the Promega Luciferase kit or any kit or reagents that provide the luciferin substrate for measuring luciferase activity. The level of luciferase with only activating ligand added was the maximum signal while the luciferase with no ligand was the minimum signal. IC50 values were determined as the concentration which inhibits half of the luciferase activity.

IC50 [µM] | SMILES
< 0.5 | Fc1cncc(-c2cc(NCCc3c[nH]c4ccccc34)n3ncc(C4CCCO4)c3n2)c1 (stereo not drawn) [I-226, 5-(5-Fluoro-3-pyridyl)-N-[2-(1H-indol-3-yl)ethyl]-3-tetrahydrofuran-2-yl-pyrazolo[1,5-a]pyrimidin-7-amine]
> 1.5 | O=C(O)c1cnn2c(NC[C@@H](O)c3c[nH]c4ccccc34)cc(-c3cncc(F)c3)nc12 [I-158b]
> 1.5 | Fc1cncc(-c2nc(N[C@@H]3CCc4[nH]c5ccccc5c4C3)n3ccnc3n2)c1 [I-125, (3R)—N-[2-(5-Fluoro-3-pyridyl)imidazo[1,2-a][1,3,5]triazin-4-yl]-2,3,4,9-tetrahydro-1H-carbazol-3-amine]
> 1.5 | CC(C)c1cnn2c(NC3CC3c3ccc(O)cc3)cc(-c3cncc(F)c3)nc12 (stereo not drawn) [I-181]
> 1.5 | CC(C)c1cnn2c(NC3CCc4[nH]c5ccccc5c4C3)nc(N3CCN(C)CC3)nc12 (stereo not drawn) [I-260]
0.5 to 1 | CC(C)Oc1cc(-c2ccccc2)nc(NCCc2c[nH]c3ccccc23)n1 [I-155, N-(2-(1H-Indol-3-yl)ethyl)-4-isopropoxy-6-phenylpyrimidin-2-amine]
< 0.5 | Fc1cncc(-c2nc(N[C@@H]3CCc4[nH]c5ccccc5c4C3)c3nccn3n2)c1 [I-256, (3R)—N-[2-(5-fluoro-3-pyridyl)imidazo[2,1-f][1,2,4]triazin-4-yl]-2,3,4,9-tetrahydro-1H-carbazol-3-amine]
> 1.5 | CON(C)C(=O)c1cnn2c(N[C@@H]3CCc4[nH]c5ccccc5c4C3)cc(-c3cncc(F)c3)nc12 [I-25, 5-(5-Fluoro-3-pyridyl)-N-methoxy-N-methyl-7-[[(3R)-2,3,4,9-tetrahydro-1H-carbazol-3-yl]amino]pyrazolo[1,5-a]pyrimidine-3-carboxamide]
1 to 1.5 | CC(C)c1cnn2c(N[C@H]3Cc4[nH]c5ccccc5c4C3)nc(-c3cncc(F)c3)nc12 [I-263b, (2R)—N-[2-(5-fluoro-3-pyridyl)-8-isopropyl-pyrazolo[1,5-a][1,3,5]triazin-4-yl]-1,2,3,4-tetrahydrocyclopenta[b]indol-2-amine]
< 0.5 | CC(C)c1cnn2c(NCCc3ccc(O)cc3)cc(-c3cncc(F)c3)nc12 [I-108, 4-[2-[[5-(5-Fluoro-3-pyridyl)-3-isopropyl-pyrazolo[1,5-a]pyrimidin-7-yl]amino]ethyl]phenol]
> 1.5 | CC(C)c1cnn2c(N[C@@H]3CCc4[nH]c5ccccc5c4C3)nc(N3CCCCC3)nc12 [I-264, (3R)—N-[8-Isopropyl-2-(1-piperidyl)pyrazolo[1,5-a][1,3,5]triazin-4-yl]-2,3,4,9-tetrahydro-1H-carbazol-3-amine]
> 1.5 | Fc1cncc(-c2cc(N[C@@H]3CCc4[nH]c5ccccc5c4C3)n3nccc3n2)c1 [I-41, (3R)—N-[5-(5-Fluoro-3-pyridyl)pyrazolo[1,5-a]pyrimidin-7-yl]-2,3,4,9-tetrahydro-1H-carbazol-3-amine]
< 0.5 | Cc1cnn2c(N[C@@H]3CCc4[nH]ccc4C3)nc(-c3cncc(F)c3)nc12 [I-259b, 2-(5-Fluoro-3-pyridyl)-8-methyl-N-[(5R)-4,5,6,7-tetrahydro-1H-indol-5-yl]pyrazolo[1,5-a][1,3,5]triazin-4-amine]
> 1.5 | CC(C)n1cnc2c(NCCn3c(=O)[nH]c4ccccc43)nc(-c3cncc(F)c3)nc21 [I-10, 3-[2-[[2-(5-Fluoro-3-pyridyl)-9-isopropyl-purin-6-yl]amino]ethyl]-1H-benzimidazol-2-one]
< 0.5 | O=Cc1cnn2c(NC3CCc4[nH]c5ccccc5c4C3)nc(-c3cncc(F)c3)nc12 (stereo not drawn) [I-275]
0.5 to 1 | C[C@H](O)c1cnn2c(N[C@@H]3CCc4[nH]c5ccccc5c4C3)cc(-c3cncc(F)c3)nc12 [I-198b, (1S)-1-[5-(5-fluoro-3-pyridyl)-7-[[(3R)-2,3,4,9-tetrahydro-1H-carbazol-3-yl]amino]pyrazolo[1,5-a]pyrimidin-3-yl]ethanol]
> 1.5 | CC(C)c1cnn2c(N[C@@H]3CCc4[nH]c5ccccc5c4C3)nc(N3CCOCC3)nc12 [I-254, (3R)—N-(8-Isopropyl-2-morpholino-pyrazolo[1,5-a][1,3,5]triazin-4-yl)-2,3,4,9-tetrahydro-1H-carbazol-3-amine]

IC50 [µM] | SMILES
> 1.5 | CC(C)c1cnn2c(N[C@H]3CCc4[nH]c5c(F)cccc5c4C3)cc(-c3cncc(F)c3)nc12 [I-212]
< 0.5 | Cc1[nH]c2ccccc2c1CCNc1nc(-c2cncc(F)c2)nc2c1ncn2C(C)C [I-79, 2-(5-Fluoro-3-pyridyl)-9-isopropyl-N-[2-(2-methyl-1H-indol-3-yl)ethyl]purin-6-amine]
< 0.5 | Cc1[nH]c2c(F)cccc2c1CCNc1cc(-c2cncc(F)c2)nc2c(C(C)C)cnn12 [I-66, N-[2-(7-fluoro-2-methyl-1H-indol-3-yl)ethyl]-5-(5-fluoro-3-pyridyl)-3-isopropyl-pyrazolo[1,5-a]pyrimidin-7-amine]
< 0.5 | Cc1cnn2c(N[C@@H]3Cc4ccc(O)cc4C3)cc(-c3cncc(F)c3)nc12 [I-232, (2R)-2-[[5-(5-Fluoro-3-pyridyl)-3-methyl-pyrazolo[1,5-a]pyrimidin-7-yl]amino]indan-5-ol]
< 0.5 | CC(C)c1cnn2c(NCCc3n[nH]c4ccccc34)nc(-c3cncc(F)c3)nc12 [I-289]
< 0.5 | Cc1[nH]c2c(F)cccc2c1CCNc1nc(-c2cncc(F)c2)nc2c1ncn2C(C)C [I-71, N-[2-(7-Fluoro-2-methyl-1H-indol-3-yl)ethyl]-2-(5-fluoro-3-pyridyl)-9-isopropyl-purin-6-amine]
> 1.5 | COc1cncc(-c2cc(NC3CCc4[nH]c5ccccc5c4C3)n3ncc(C(C)C)c3n2)c1 (stereo not drawn) [I-236]
< 0.5 | Cc1[nH]c2ccc(F)cc2c1CCNc1nc(-c2cncc(F)c2)nc2c1ncn2C(C)C [I-69, N-[2-(5-Fluoro-2-methyl-1H-indol-3-yl)ethyl]-2-(5-fluoro-3-pyridyl)-9-isopropyl-purin-6-amine]
> 1.5 | Cc1cnn2c(NCCc3c[nH]c4c(O)cc(O)cc34)cc(-c3cncc(F)c3)nc12 [I-149]
< 0.5 | Cc1cnn2c(NCCc3ccccc3)cc(-c3cncc(F)c3)nc12 [I-218, 5-(5-fluoro-3-pyridyl)-3-methyl-N-(2-phenylethyl)pyrazolo[1,5-a]pyrimidin-7-amine]
> 1.5 | CC(C)c1cnn2c(N[C@H]3CCc4c([nH]c5ccccc45)C3)nc(-c3cncc(F)c3)nc12 [I-146a]
< 0.5 | Cc1cnn2c(NCCc3ccc(O)cc3)cc(-c3cncc(F)c3)nc12 [I-213, 4-[2-[[5-(5-fluoro-3-pyridyl)-3-methyl-pyrazolo[1,5-a]pyrimidin-7-yl]amino]ethyl]phenol]
< 0.5 | Fc1cncc(-c2nc(N[C@@H]3CCc4[nH]ccc4C3)c3ncccc3n2)c1 [I-252b, 2-(5-Fluoro-3-pyridyl)-N-[(5R)-4,5,6,7-tetrahydro-1H-indol-5-yl]pyrido[3,2-d]pyrimidin-4-amine]
> 1.5 | CC(C)c1cnn2c(N[C@H]3CCc4[nH]ncc4C3)cc(-c3cncc(F)c3)nc12 (single isomer, unassigned) [I-42a]
> 1.5 | CC(C)c1cnn2c(N[C@H]3CCc4cn[nH]c4C3)cc(-c3cncc(F)c3)nc12 (single isomer, unassigned) [I-32a]
< 0.5 | CC(C)c1cnn2c(NCCc3c[nH]c4c(F)cc(F)cc34)cc(-c3cncc(F)c3)nc12 [I-99, N-[2-(5,7-Difluoro-1H-indol-3-yl)ethyl]-5-(5-fluoro-3-pyridyl)-3-isopropyl-pyrazolo[1,5-a]pyrimidin-7-amine]
